Where two headings read alike, the source gives them in different places.
Tested on: P. falciparum 3D7 gametocytes
Assay: alamarBlue gametocyte viability assay, strain 3D7
Assay type: cell-based, Plasmodium falciparum
Details: Malaria Box; for Max Resp: DMSO set at 0%, 100 nM epoxomicin set at -100%; for Curve Class / IC50: stages III-V 3D7 gametocytes; for IC50: 11 concentrations, 1:3 dilution; call rule not given here

IC50 (read-out: IC50) [µM] | IC50 | Compound | Max Resp [%] | Curve Class
29.6 |  | CC1CCN(Cc2c(O)ccc3cc(-c4nc5ccccc5s4)c(=O)oc23)CC1 [MMV009127] | -72 | -2.2
14.8 |  | CC(C)=CCN1CCC(C(=O)Nc2ccc(-c3nc4ccccc4[nH]3)cc2)CC1 [MMV665946] | -77 | -2.2
 | Inactive | O=C(NC1CCN(Cc2ccccc2)CC1)c1cc2nc(-c3ccc(Cl)s3)cc(C(F)(F)F)n2n1 [MMV396635] | -24 | 4
37.2 |  | COc1cc(-c2nc(-c3ccccc3)c(-c3ccccc3)[nH]2)cc(OC)c1O [MMV020750] | -55 | -2.2
14.8 |  | N=c1n(CCN2CCCCC2)c2ccccc2n1CC(=O)c1ccc(Cl)c(Cl)c1 [MMV396723] | -92 | -2.1
0.662 |  | Oc1ccccc1CN1CCC2(CCCN(Cc3ccccc3F)C2)C1 (stereo not drawn) [MMV666116] | -46 | -1.2
37.2 |  | CN1CCN(c2ncnc3c2[nH]c2ccc(Cl)cc23)CC1 [MMV396704] | -57 | -2.2
14.8 |  | CC1CCN(Cc2ccc(NC(=O)c3cc4ccc5cccnc5c4[nH]3)cc2)CC1 [MMV020549] | -75 | -2.2
 | Inactive | O=c1c2c([nH]c3ccccc13)CCCC2 [MMV665843] | -7 | 4
14.8 |  | Cc1ccc(Nc2nc(N)c3ccccc3n2)cc1Cl [MMV011522] | -73 | -2.2
29.6 |  | COc1ccc2nc(N)nc(C)c2c1 [MMV665897] | -66 | -2.2
 | Inactive | Cc1ccc(-c2cc3c(nn2)-c2ccccc2C3=O)cc1 [MMV666021] | -4 | 4

Second part, the compound before the results:

Compound | IC50 (read-out: IC50) [µM] | IC50 | Max Resp [%] | Curve Class
CCOc1cc(CNC(C)C(O)c2ccccc2)cc(Cl)c1OCC (stereo not drawn) [MMV396633] | 11.8 |  | -72 | -2.2
Cc1ccc2nc(C)cc(Nc3cccc(C(F)(F)F)c3)c2c1.Cl [MMV000326] |  | Inactive | -52 | -2.2
COc1cc2c3cc1Oc1c(OC)c(OC)cc4c1C(Cc1ccc(O)c(c1)Oc1ccc(cc1)CC3N(C)CC2)N(C)CC4.Cl (stereo not drawn) [MMV007474] | 5.9 |  | -93 | -1.1
COc1ccc(Nc2cc(C)nc(NCc3ccccc3)n2)cc1 [MMV006825] | 23.5 |  | -74 | -2.2
COc1ccc2sc(N(Cc3cccnc3)C(=O)c3ccc(C#N)cc3)nc2c1 [MMV001239] |  | Inactive | -40 | -2.2
CCOC(=O)c1ccc2[nH]c(-c3ccccc3)cc(=O)c2c1 [MMV006457] |  | Inactive | 14 | 4
CN1CCN(c2nc(Nc3ccc(O)cc3)nc3ccccc23)CC1.Cl [MMV000986] | 6.62 |  | -93 | -1.1
Oc1ccc(-c2nc(-c3ccc4oc5ccc(-c6[nH]c(-c7ccc(O)cc7)nc6-c6ccccc6)cc5c4c3)c(-c3ccccc3)[nH]2)cc1 [MMV000753] | 18.7 |  | -68 | -2.2
CCCOCc1cc(CN2CCN(c3cccc(Cl)c3)CC2)c(O)c2ncccc12 [MMV000787] | 8.33 |  | -98 | -1.1
COc1ccc2nc(C)cc(Nc3ccc(Cl)cc3)c2c1 [MMV007875] | 23.5 |  | -72 | -2.2
CCOC(=O)c1cnc2c(C)cc(C)cc2c1Nc1ccc(OC)c(OC)c1 [MMV008294] |  | Inactive | -8 | 4

Reference: article PMC3894558, “Chemical signatures and new drug targets for gametocytocidal drug development” (Scientific Reports, 2014)
